Assay results taken from paper PMC2634724 (British Journal of Cancer, 2009).
Values joined by “and” are separate entries in the source; they are usually repeats but may differ in a detail not shown here. Identical values can stand only once. Like-named read-outs stand apart in the source and are kept apart here.

Key:
advanced solid tumours [1] = details: prior docetaxel therapy in the same two patients with metastatic breast cancer; patient history; cited from earlier work
[2] = tested on: patients with advanced cancers; set-up: method as in Tabernero et al, 2008; details: single-agent everolimus 70 mg weekly; ref Tabernero et al, 2008; cited from earlier work
[3] = Pharmacokinetics of everolimus in whole blood (LC-MS, non-compartmental); assay type: in vivo, human; details: for Tmax / Cmax / half-life: whole blood; for Cmax / half-life: mean (s.d.)
Procedure: (§1) For everolimus, sampling was carried out predose and 1, 2, 4, 6, 12, 24, 48, 96, and 168 h after administration. Everolimus was measured in whole blood by liquid chromatography–mass spectrometry after liquid extraction, its lower limit of quantification being 0.368 ng ml^−1. […] Pharmacokinetic parameters were derived by standard non-compartmental methods of analysis (WinNonlin Pro 5.0). The measured parameters included the maximum plasma concentration (Cmax), time to reach Cmax (tmax), and the truncated area under the time–concentration curve (AUClast).

advanced solid tumours [4] = assay: Anti-tumour activity, Response Evaluation Criteria in Solid Tumors; assay type: in vivo, human
Procedure: (§2) Patients receiving at least one dose of study drug medications were evaluated weekly for safety using the National Cancer Institute Common Toxicity Criteria version 2.0. Safety assessments consisted of clinical examinations and scheduled laboratory evaluations and electrocardiograms. […] Treatment with the combination was discontinued on any grade 4 toxicity or failure to return to grade ⩽1 within 2 weeks. […] The concomitant use of any drugs that may interfere with cytochrome CYP450-3A was discouraged. […] Anti-tumour activity was assessed using Response Evaluation Criteria in Solid Tumors.

tumour models = tested on: tumour models; set-up: method as in O'Reilly et al, 2003; details: schedule effect, ref O'Reilly et al, 2003; cited from earlier work
[5] = tested on: trastuzumab-resistant breast cancer; set-up: method as in André et al, 2008; details: everolimus and paclitaxel with trastuzumab; population pre-treated with trastuzumab and taxanes; preliminary; ref André et al, 2008; cited from earlier work
S6K1 [6] = tested on: S6K1; set-up: method as in Tabernero et al, 2008; details: weekly dosing (20, 50, or 70 mg), immunohistochemistry; ref Tabernero et al, 2008; cited from earlier work
[7] = as a single agent; no reference given; cited from earlier work
S6K1 [8] = tested on: S6K1; set-up: method as in O'Donnell et al, 2008; details: ref O'Donnell et al, 2008, cited from earlier work
[9] = tested on: patients with advanced solid tumours; details: human, in vivo
Procedure: as §2
(§3) Dose-limiting toxicity was defined as occurring during the first 28-day cycle, suspected of being drug related, and included any grade 4 toxicity, any grade 3 non-haematological toxicity despite preventive therapy, or grade ⩾2 neutropenia, or thrombocytopenia failing to revert to grade ⩽1 within 2 weeks. Three patients were entered per dose level, with expansion to six patients if one of three patients experienced DLT. If DLT occurred in none of three or no more than one of six patients in dose level 1, doses would be escalated to dose level 2. Dose-limiting toxicity in more than one of three or more than two of six patients would be considered unacceptable.

[10] = tested on: patients with advanced solid tumours; assay: Safety and dose-limiting toxicity, NCI Common Toxicity Criteria version 2.0; details: everolimus + paclitaxel, 16 patients
Procedure: as §2, §3

clinical = details: human, in vivo, iv
Procedure: as §1

cervical cancer = tested on: cervical cancer; set-up: method as in Mori et al, 2007; details: weekly paclitaxel, cervical cancer patients; ref Mori et al, 2007; cited from earlier work
[11] = as a single agent; cited from earlier work
[12] = human, po, 15 mg, everolimus 15 mg oral alone, dose level 1, n=3
[13] = human, po, 30 mg, everolimus 30 mg oral alone, dose level 2, n=4
[14] = human, po, everolimus 15 mg oral with paclitaxel 80 mg m^−2, dose level 1, n=3
[15] = human, po, everolimus 30 mg oral with paclitaxel 80 mg m^−2, dose level 2, n=7
[16] = everolimus + paclitaxel, 16 patients

In the case of `CC(=O)O[C@@]12CO[C@@H]1C[C@H](O)[C@@]1(C)C(=O)[C@H](O)C3=C(C)[C@@H](OC(=O)[C@H](O)[C@@H](NC(=O)OC(C)(C)C)c4ccccc4)C[C@@](O)([C@@H](OC(=O)c4ccccc4)[C@H]21)C3(C)C` [docetaxel], the “Duration of tumour stabilisation previously recorded” value (advanced solid tumours [1]) is given as 3.7 months and 3.5 months.
For `CO[C@H]1C[C@@H]2CC[C@@H](C)[C@@](O)(O2)C(=O)C(=O)N2CCCC[C@H]2C(=O)O[C@H]([C@H](C)C[C@@H]2CC[C@@H](OCCO)[C@H](OC)C2)CC(=O)[C@H](C)/C=C(\C)[C@@H](O)[C@@H](OC)C(=O)[C@H](C)C[C@H](C)/C=C/C=C/C=C/1C` [everolimus, Everolimus], the Dose-limiting toxicities observed [2] is given as “grade 3 stomatitis, neutropenia, and hyperglycaemia”, the Tmax ([3]; everolimus 30 mg oral with paclitaxel 80 mg m^−2, dose level 2, n=7, median (range)) is given as 1.0 (1–4) h and the “Change in tmax, Cmax and AUClast when given in combination” value ([3]; everolimus with paclitaxel vs alone) is given as “no meaningful change”. The Cmax [3, 12] was 75.2 ± 37.4 ng/mL, the half-life [3, 12] was 1770 ± 510 min and the Cmax [3, 13] was 93 ± 28.6 ng/mL. It also gave a half-life [3, 13] of 1610 ± 426 min, a Cmax [3, 14] of 57.9 ± 35.8 ng/mL and a half-life [3, 14] of 1480 ± 216 min. For the same compound, the Cmax [3, 15] was 94.5 ± 60.1 ng/mL, the half-life [3, 15] was 1640 ± 336 min and the Tmax ([3]; human, po, read-out: tmax) was 1 h. For the same compound, the Tmax ([3]; human, everolimus 15 mg oral alone, dose level 1, n=3, median (range), read-out: tmax) was 1 h, the Tmax ([3]; human, everolimus 30 mg oral alone, dose level 2, n=4, median (range), read-out: tmax) was 1 h and the “Change of everolimus AUC with concomitant fluconazole” value ([3]; one patient at dose level 2 (everolimus 30 mg), concomitant medication with fluconazole) was “threefold increase”. For the same compound, the Objective response (advanced solid tumours [4]; [16]) was “No objective response”, the “Tumour stabilisation reported, patients” value (advanced solid tumours [4]; [16]) was 11 patients and the “Sustained tumour stabilisation for more than 4 months, patients” value (advanced solid tumours [4]; everolimus + paclitaxel, breast (two), ovarian (two), thyroid carcinoma (one), liposarcoma (one)) was “six”. For the same compound, the “Duration of tumour stabilisation” value (advanced solid tumours [4]; two patients with metastatic breast cancer at dose level 2 (everolimus 30 mg + paclitaxel)) was greater than 6 months, the “Effect of in vivo combination with paclitaxel” value (tumour models) was “additive and synergistic effects” and the Rate of response [5] was 46%. For the same compound, the “Dose with confirmed inhibition of S6K1 in paired tumour tissue biopsies” value (S6K1 [6]) was no less than 20 mg, the Terminal half-life [7] was “about 30 h” and the “Duration of sustained inhibition of S6K1 activity in peripheral blood mononuclear cells” value (S6K1 [8]; single-agent everolimus at doses ⩾20 mg per week) was “at least 7 days”. The “Dose with consistent inhibition of S6K1 activity in peripheral blood mononuclear cells” value (S6K1 [8]; single-agent everolimus) was no less than 20 mg per week, the “Dose interruptions in any cycle, n (%)” value [9] was 8 (50.0) and the Toxicity-related death [10] was “No toxicity-related death”.
In the case of `CC(=O)O[C@H]1C(=O)[C@@]2(C)[C@H]([C@H](OC(=O)c3ccccc3)[C@]3(O)C[C@H](OC(=O)[C@H](O)[C@@H](NC(=O)c4ccccc4)c4ccccc4)C(C)=C1C3(C)C)[C@]1(OC(C)=O)CO[C@@H]1C[C@@H]2O` [paclitaxel], the Tmax (clinical) is given as 4.8 min, the “Time apoptosis could be induced after treatment” value (cervical cancer) is given as “up to 1 week” and the “Time paclitaxel could be detected in tissue” value (cervical cancer) is given as “up to 6 days”. The Terminal half-life [11] was “about 10 h”.
